Measurements from patent US4173702A, “7-(5-Amino-5-carboxyvaler-amido)-3-(carbamoyloxymethyl)-7-methoxy-3-cep hem-4-carboxylic acid” (Eli Lilly and Company, priority 1970, dated 1979).
Where two headings read alike, the source gives them in different places.

Assays:
[1] = system: Ascaris lumbricoides var. suum; assay: medicated feed, mice infected with Ascaris ova, lung lesions; format: in vivo; conditions: Example 13, mice, 0.05 percent in diet; control 2.66
From the text: The feeds were utilized as diets for separate groups of mice, five mice per group. Above twelve hours after initiation of the feeding, the mice were infected with Ascaris lumbricoides var. suum ova. Another group of five mice were fed the non-medicated feed to serve as a control but was similarly infected at the same time with Ascaris lumbricoides var. suum. All groups were fed their respective feed and maintained under normal laboratory conditions for a period of eight days, at which time all mice were taken off feed. On the ninth day, all mice were sacrificed and the lungs examined to determine the presence, and if present, numbers, of lesions of Ascaris lumbricoides var. suum.
Another evaluation was conducted under the procedures reported in Example 11, except that the rates were varied. The results were as follows:
In a further evaluation, the monoammonium salts of A16886I and A16886II were separately evaluated for the control of Ascaris lumbricoides var. suum. The evaluations were conducted in accordance with the procedure reported in Example 11 at a concentration in the diet of 0.05 percent.

Pseudomonas solanacearum = format: in vivo; conditions: 0 no control, 4 complete control
solubility = format: physicochemical
Xanthomonas vesicatoria = assay: field trial, bacterial spot control on tomato plants; format: in vivo
Method: (§1) A mixture of the monoammonium salt of A16886I and the monoammonium salt of A16886II was tested under field conditions for the control of Xanthomonas vesicatoria (bacterial spot) on mature bearing tomato plants. The mixture of the two salts was dispersed in water at a concentration of 100, 200, or 400 parts per million and applied to the plants at the rate of 75 gallons per acre. Application was made with a CO2 sprayer at 50 psi. Plants were sprayed twice, on successive days; after the second spray had dried, all plants were wounded by sand blasting and then within one minute the plants were inoculated with a bacterial inoculum of Xanthomonas vesicatoria. Three days later, a third spray application of the aqueous formulation of A16886 was made. Readings were made one week and two weeks after the last spray treatment. Controls consisted of groups of plants (1) sand blasted and inoculated; (2) sand blasted only; (3) untreated; and (4) treated with streptomycin (on the same three-day spraying schedule, at a concentration of 100, 200, or 400 parts per million of aqueous solution, using a rate of 75 gallons per acre), sand blasted, and inoculated. The results were as set forth in the following table, in which crop injury is reported on a scale of 0-10, with 0=no injury and 10=dead plants; and control of bacterial spot is reported on a percentage basis.

tomato plants = assay: field trial, crop injury; format: in vivo; conditions: 0=no injury, 10=dead plants
Method: as §1

[2] = in acetonitrile and other organic solvents

For `COC1(NC(=O)CCCC(N)C(=O)O)C(=O)N2C(C(=O)O)=C(COC(N)=O)CS[C@@H]21` (stereo partly drawn) [A16886I, 7-(5-amino-5-carboxyvaleramido)-3-(carbamoyloxymethyl)-7-methoxy-3-cephem-4-carboxylic acid], the “Average Number of Lung Lesions Per Group” value [1] was 0.46, the “Disease Rating” value (Pseudomonas solanacearum; Example 7, 10 ppm.) was 2 and the “Disease Rating” value (Pseudomonas solanacearum; Example 7, 100 ppm.) was 4. For the same compound, the rating (Pseudomonas solanacearum; Example 8, 100 ppm.) was 4, the rating (Pseudomonas solanacearum; Example 8, 200 ppm.) was 4 and the rating (Pseudomonas solanacearum; Example 8, 400 ppm.) was 4. For the same compound, the solubility (solubility; [2]) was “essentially insoluble”, the solubility (solubility; in lower alkanols) was “slightly soluble” and the solubility (solubility; in water) was “very soluble”.
With `NC(=O)OCC1=C(C(=O)O)N2C(=O)C(NC(=O)CCCC(N)C(=O)O)[C@H]2SC1` (stereo partly drawn) [A16886II, 7-(5-amino-5-carboxyvaleramido)-3-(carbamoyloxymethyl)-3-cephem-4-carboxylic acid] the “Average Number of Lung Lesions Per Group” value [1] was 0.20, the “Disease Rating” value (Pseudomonas solanacearum; Example 7, 10 ppm.) was 1 and the “Disease Rating” value (Pseudomonas solanacearum; Example 7, 100 ppm.) was 4. For the same compound, the solubility (solubility; [2]) was “essentially insoluble”, the solubility (solubility; in lower alkanols) was “slightly soluble” and the solubility (solubility; in water) was “very soluble”.
With `[H]/N=C(/N)N[C@H]1[C@H](O)[C@@H](O)[C@H](O[C@@H]2O[C@@H](C)[C@](O)(C=O)[C@H]2O[C@@H]2O[C@@H](CO)[C@H](O)[C@@H](O)[C@@H]2NC)[C@@H](N/C(N)=N\[H])[C@@H]1O` [Streptomycin] the “Percent Bacterial Spot Control” value (Xanthomonas vesicatoria; 100 ppm, First Reading) was 83%, the “Percent Bacterial Spot Control” value (Xanthomonas vesicatoria; 100 ppm, Second Reading) was 57% and the “Percent Bacterial Spot Control” value (Xanthomonas vesicatoria; 200 ppm, First Reading) was 81%. The “Percent Bacterial Spot Control” value (Xanthomonas vesicatoria; 200 ppm, Second Reading) was 37%, the “Percent Bacterial Spot Control” value (Xanthomonas vesicatoria; 400 ppm, First Reading) was 83% and the “Percent Bacterial Spot Control” value (Xanthomonas vesicatoria; 400 ppm, Second Reading) was 59%. The “Crop Injury Ratings” value (tomato plants; 100 ppm, First Reading) was 0, the “Crop Injury Ratings” value (tomato plants; 100 ppm, Second Reading) was 0 and the “Crop Injury Ratings” value (tomato plants; 200 ppm, First Reading) was 0. For the same compound, the “Crop Injury Ratings” value (tomato plants; 200 ppm, Second Reading) was 0, the “Crop Injury Ratings” value (tomato plants; 400 ppm, First Reading) was 0 and the “Crop Injury Ratings” value (tomato plants; 400 ppm, Second Reading) was 0.
